Several values for one entry are separate records, joined by “and”; a condition that tells them apart may be missing. Equal values may be shown once. Entries after “also recorded” stand apart in the source; their conditions may differ. Read-outs that look alike come from different tables or passages of the source.

The target of assay [1] is mNav1.7 (Mus musculus, UniProt Q62205). Kind of assay: cell-based. As to conditions: for IC50: PatchXpress, tonic block, mouse Nav1.7, read-out: PX mNav1.7 Tonic IC50; for mNav1.7/hNav1.7: ratio of PX tonic IC50, mouse Nav1.7 over human Nav1.7.
Assay [2] addresses rNav1.7 (Rattus norvegicus, UniProt O08562). The assay can be described thus: cell-based. As to conditions: for IC50: PatchXpress, tonic block, rat Nav1.7, read-out: PX rNav1.7 Tonic IC50; for rNav1.7/hNav1.7: ratio of PX tonic IC50, rat Nav1.7 over human Nav1.7.
For assay [3], the target named is mouse Nav1.4 (Mus musculus, UniProt Q9ER60). The assay can be described thus: cell-based. As to conditions: for IC50: PatchXpress, tonic block, mouse Nav1.4, read-out: PX mNav1.4 Tonic IC50; for mNav1.4/mNav1.7: ratio of PX tonic IC50, mouse Nav1.4 over mouse Nav1.7.
The target of assay [4] is T1, hNav1.7 (Homo sapiens, UniProt Q15858). Kind of assay: cell-based. The format is cell-based.
In assay [5] the test system is TTX-sensitive Nav channels in mouse DRG neuron. As to conditions: for 1.x/1.7: partially inactivated, mTTX-S / hNav1.7.
The target of assay [6] is T1, hNav1.7. The assay can be described thus: cell-based. Type of assay: cell-based. As to conditions: for block of hNav1.7 current, in words: 100 pM; for 1.x/1.7: hNav1.7 / hNav1.7.
In assay [7] the target is hNav1.6 (Homo sapiens, UniProt Q9UQD0). Kind of assay: cell-based. Type of assay: cell-based. As to conditions: Table 15; for Nav1.6/Nav1.7: ratio of PX tonic IC50 values; for IC50: read-out: PX hNav1.6 Tonic IC50.
Assay [8] concerns the target hNav1.4 (Homo sapiens, UniProt P35499). Kind of assay: cell-based. Type of assay: cell-based. As to conditions: Table 12.
The mark [9] stands for this setting: Table 15, read-out: PX hNav1.7 Tonic IC50.

T1 sequence (Q15858 whole entry): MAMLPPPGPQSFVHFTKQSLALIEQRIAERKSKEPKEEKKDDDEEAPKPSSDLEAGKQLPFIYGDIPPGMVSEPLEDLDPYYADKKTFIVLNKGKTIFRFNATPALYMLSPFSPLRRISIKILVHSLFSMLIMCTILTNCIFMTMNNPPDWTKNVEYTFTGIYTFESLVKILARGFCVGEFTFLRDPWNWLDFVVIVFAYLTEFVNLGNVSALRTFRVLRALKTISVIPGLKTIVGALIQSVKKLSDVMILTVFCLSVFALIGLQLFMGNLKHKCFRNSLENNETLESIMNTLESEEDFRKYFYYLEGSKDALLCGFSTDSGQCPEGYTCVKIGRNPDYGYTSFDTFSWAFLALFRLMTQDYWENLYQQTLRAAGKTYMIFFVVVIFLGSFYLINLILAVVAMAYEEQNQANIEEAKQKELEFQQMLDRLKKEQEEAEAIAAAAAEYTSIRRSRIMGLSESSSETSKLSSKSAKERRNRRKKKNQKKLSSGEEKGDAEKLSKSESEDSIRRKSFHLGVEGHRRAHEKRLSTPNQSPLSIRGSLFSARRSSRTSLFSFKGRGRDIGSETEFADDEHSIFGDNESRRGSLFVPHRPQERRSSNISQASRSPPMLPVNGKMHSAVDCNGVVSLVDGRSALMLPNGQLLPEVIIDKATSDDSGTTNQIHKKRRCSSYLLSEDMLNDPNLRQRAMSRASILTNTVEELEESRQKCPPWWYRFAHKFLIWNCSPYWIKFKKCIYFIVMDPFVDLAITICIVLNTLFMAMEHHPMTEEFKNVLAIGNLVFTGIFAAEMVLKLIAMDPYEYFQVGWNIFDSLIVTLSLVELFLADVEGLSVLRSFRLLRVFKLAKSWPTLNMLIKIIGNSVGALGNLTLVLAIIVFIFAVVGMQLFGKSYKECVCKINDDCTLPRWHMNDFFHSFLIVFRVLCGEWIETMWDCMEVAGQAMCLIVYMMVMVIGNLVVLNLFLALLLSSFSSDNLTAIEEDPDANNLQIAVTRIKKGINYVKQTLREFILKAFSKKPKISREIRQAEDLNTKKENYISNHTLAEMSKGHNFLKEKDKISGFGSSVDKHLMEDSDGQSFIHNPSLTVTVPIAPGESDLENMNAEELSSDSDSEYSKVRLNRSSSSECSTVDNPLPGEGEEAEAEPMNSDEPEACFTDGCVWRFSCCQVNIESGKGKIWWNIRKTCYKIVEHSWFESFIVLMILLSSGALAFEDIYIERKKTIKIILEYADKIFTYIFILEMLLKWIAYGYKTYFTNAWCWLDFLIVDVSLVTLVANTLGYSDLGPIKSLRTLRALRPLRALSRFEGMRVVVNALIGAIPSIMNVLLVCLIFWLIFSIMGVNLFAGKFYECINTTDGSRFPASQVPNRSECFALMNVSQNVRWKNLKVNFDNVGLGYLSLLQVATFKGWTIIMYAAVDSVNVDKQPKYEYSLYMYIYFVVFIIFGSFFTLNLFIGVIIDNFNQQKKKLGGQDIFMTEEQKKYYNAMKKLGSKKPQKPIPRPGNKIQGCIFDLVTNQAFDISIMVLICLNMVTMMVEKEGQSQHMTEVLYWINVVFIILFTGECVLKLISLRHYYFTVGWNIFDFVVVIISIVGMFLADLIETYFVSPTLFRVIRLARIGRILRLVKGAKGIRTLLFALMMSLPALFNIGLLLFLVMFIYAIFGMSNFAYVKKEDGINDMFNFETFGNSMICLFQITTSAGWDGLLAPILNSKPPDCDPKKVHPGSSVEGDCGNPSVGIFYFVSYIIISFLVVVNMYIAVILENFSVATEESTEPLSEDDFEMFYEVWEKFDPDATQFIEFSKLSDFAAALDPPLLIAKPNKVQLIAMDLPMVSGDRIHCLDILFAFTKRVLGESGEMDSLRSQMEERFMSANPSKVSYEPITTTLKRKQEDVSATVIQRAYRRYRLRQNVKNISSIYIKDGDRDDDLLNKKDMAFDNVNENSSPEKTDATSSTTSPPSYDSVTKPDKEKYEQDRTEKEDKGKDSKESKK
Chain of hNav1.6 (Q9UQD0 whole entry): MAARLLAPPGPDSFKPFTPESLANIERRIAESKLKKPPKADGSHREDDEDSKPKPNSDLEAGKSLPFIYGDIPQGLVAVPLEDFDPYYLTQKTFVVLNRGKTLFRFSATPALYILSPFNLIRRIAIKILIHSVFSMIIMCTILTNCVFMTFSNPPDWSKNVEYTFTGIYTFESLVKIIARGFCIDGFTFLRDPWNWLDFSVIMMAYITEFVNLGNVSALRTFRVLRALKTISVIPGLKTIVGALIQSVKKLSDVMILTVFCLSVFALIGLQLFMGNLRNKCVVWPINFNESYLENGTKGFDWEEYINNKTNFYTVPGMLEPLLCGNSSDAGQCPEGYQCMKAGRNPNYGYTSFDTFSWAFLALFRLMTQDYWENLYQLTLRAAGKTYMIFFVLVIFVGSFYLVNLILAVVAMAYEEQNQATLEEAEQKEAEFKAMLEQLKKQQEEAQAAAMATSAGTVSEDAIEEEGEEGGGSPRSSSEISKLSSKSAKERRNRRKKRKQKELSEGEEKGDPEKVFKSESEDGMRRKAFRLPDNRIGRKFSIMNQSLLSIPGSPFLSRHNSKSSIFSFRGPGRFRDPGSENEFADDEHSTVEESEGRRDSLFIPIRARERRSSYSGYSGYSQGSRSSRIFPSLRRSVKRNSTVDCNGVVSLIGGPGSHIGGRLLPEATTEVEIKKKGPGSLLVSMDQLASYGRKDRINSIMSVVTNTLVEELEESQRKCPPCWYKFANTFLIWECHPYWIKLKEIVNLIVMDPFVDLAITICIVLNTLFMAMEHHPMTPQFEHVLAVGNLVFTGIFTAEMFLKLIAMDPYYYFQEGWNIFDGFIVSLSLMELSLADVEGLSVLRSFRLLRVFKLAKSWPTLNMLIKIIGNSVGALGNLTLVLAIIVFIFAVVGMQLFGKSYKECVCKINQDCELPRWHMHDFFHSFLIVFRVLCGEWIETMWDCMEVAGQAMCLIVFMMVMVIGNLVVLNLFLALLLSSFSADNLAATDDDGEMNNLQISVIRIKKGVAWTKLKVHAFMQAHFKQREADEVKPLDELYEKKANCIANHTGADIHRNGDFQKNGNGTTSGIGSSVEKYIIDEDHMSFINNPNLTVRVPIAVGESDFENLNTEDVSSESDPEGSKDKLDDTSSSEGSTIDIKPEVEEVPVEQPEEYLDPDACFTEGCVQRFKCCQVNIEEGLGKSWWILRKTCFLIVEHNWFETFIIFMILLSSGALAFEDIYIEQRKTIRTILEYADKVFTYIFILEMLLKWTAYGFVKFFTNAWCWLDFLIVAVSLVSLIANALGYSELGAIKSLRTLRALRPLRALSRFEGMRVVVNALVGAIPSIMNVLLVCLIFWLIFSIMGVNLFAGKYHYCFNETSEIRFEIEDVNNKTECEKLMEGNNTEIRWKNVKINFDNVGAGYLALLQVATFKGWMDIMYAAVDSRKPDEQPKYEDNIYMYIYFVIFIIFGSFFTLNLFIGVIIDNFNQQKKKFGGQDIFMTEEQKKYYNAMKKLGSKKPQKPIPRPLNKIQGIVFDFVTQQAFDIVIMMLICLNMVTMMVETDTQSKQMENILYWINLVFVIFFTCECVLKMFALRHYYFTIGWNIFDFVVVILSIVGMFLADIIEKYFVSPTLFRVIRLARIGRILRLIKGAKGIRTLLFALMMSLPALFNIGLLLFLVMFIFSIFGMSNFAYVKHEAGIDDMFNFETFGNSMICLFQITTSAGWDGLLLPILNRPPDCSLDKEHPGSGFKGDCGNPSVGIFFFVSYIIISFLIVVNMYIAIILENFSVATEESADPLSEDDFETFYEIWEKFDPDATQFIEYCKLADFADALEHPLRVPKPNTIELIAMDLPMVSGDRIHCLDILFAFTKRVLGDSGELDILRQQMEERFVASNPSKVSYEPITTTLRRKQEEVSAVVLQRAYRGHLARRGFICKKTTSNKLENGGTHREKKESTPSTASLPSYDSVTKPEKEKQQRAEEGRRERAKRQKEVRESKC

The IC50 is the concentration needed to halve the response being measured. Consider `C#CC[C@H](N)C(=O)N[C@@H](Cc1ccc(O)cc1)C(=O)N[C@H]1CSSC[C@@H]2NC(=O)[C@@H]3CSSC[C@@H](C(=O)N[C@@H](CCCNC(=N)N)C(=O)N[C@@H](CCCCN)C(=O)N[C@@H](CCC(=O)O)C(=O)N[C@H](C(N)=O)[C@@H](C)CC)NC(=O)[C@H](Cc4c[nH]c5ccccc45)NC(=O)[C@H](CC(C)C)NC(=O)[C@H](CCCCN)NC(=O)[C@H](CSSC[C@H](NC(=O)[C@H]([C@@H](C)O)NC(=O)[C@H](Cc4c[nH]c5ccccc45)NC(=O)[C@H](CCCC)NC(=O)[C@H](Cc4c[nH]c5ccccc45)NC(=O)[C@H](CCCCN)NC(=O)[C@H](CCC(N)=O)NC1=O)C(=O)N[C@@H](CC(=O)O)C(=O)N[C@@H](CO)C(=O)N[C@@H](CCC(=O)O)C(=O)N[C@@H](CCCNC(=N)N)C(=O)N[C@@H](C)C(=O)N3)NC(=O)[C@H](CCCNC(=N)N)NC(=O)[C@H](CC(C)C)NC(=O)CNC(=O)[C@H](CCC(=O)O)NC2=O` [Pra-[Nle6; Glu12, 28]JzTx-V(1-29)], for which, in assay [1], the IC50 turned out to be 16.2 nM and the mNav1.7/hNav1.7 is listed as 9.37. Further, in assay [2], the half-maximal inhibitory concentration (IC50) worked out at 2.66 nM and the rNav1.7/hNav1.7 was found to be 1.54. Also, in assay [3], the IC50 was determined as 548 nM and the mNav1.4/mNav1.7 is reported as 34.
`C#CC[C@H](N)C(=O)N[C@@H](Cc1ccc(O)cc1)C(=O)N[C@H]1CSSC[C@@H]2NC(=O)[C@@H]3CSSC[C@@H](C(=O)N[C@@H](CCCNC(=N)N)C(=O)N[C@@H](CCCCN)C(=O)N[C@H](C(=O)N[C@H](C(N)=O)[C@@H](C)CC)[C@@H](C)CC)NC(=O)[C@H](Cc4c[nH]c5ccccc45)NC(=O)[C@H](CC(C)C)NC(=O)[C@H](CCCCN)NC(=O)[C@H](CSSC[C@H](NC(=O)[C@H]([C@@H](C)O)NC(=O)[C@H](Cc4c[nH]c5ccccc45)NC(=O)[C@H](CCCC)NC(=O)[C@H](Cc4c[nH]c5ccccc45)NC(=O)[C@H](CCCCN)NC(=O)[C@H](CCC(N)=O)NC1=O)C(=O)N[C@@H](CC(=O)O)C(=O)N[C@@H](CO)C(=O)N[C@@H](CCC(=O)O)C(=O)N[C@@H](CCCNC(=N)N)C(=O)N[C@@H](C)C(=O)N3)NC(=O)[C@H](CCCNC(=N)N)NC(=O)[C@H](CC(C)C)NC(=O)CNC(=O)[C@H](CCCCN)NC2=O` [Pra-[Nle6; Glu12; Lys17]JzTx-V(1-29)]: in assay [1], the concentration for half-maximal inhibition (IC50) came to 1.27 nM and the mNav1.7/hNav1.7 is 0.68. Moreover, in assay [2], the IC50 stood at 0.653 nM and the rNav1.7/hNav1.7 is given as 0.35. In assay [3], the concentration for half-maximal inhibition (IC50) was 2.77 nM and the mNav1.4/mNav1.7 came to 2.2.
As to `C#CC[C@H](N)C(=O)N[C@@H](Cc1ccc(O)cc1)C(=O)N[C@H]1CSSC[C@@H]2NC(=O)[C@@H]3CSSC[C@@H](C(=O)N[C@@H](CCCNC(=N)N)C(=O)N[C@@H](CCCCN)C(=O)N[C@H](C(=O)N[C@H](C(N)=O)[C@@H](C)CC)[C@@H](C)CC)NC(=O)[C@H](Cc4c[nH]c5ccccc45)NC(=O)[C@H](CC(C)C)NC(=O)[C@H](CCCCN)NC(=O)[C@H](CSSC[C@H](NC(=O)[C@H]([C@@H](C)O)NC(=O)[C@H](Cc4c[nH]c5ccccc45)NC(=O)[C@H](CCCC)NC(=O)[C@H](Cc4c[nH]c5ccccc45)NC(=O)[C@H](CCCCN)NC(=O)[C@H](CCC(N)=O)NC1=O)C(=O)N[C@@H](CC(=O)O)C(=O)N[C@@H](CO)C(=O)N[C@@H](CCC(=O)O)C(=O)N[C@@H](CCCNC(=N)N)C(=O)N[C@@H](C)C(=O)N3)NC(=O)[C@H](CCCNC(=N)N)NC(=O)[C@H](CC(C)C)NC(=O)CNC(=O)[C@H](CCC(=O)O)NC2=O` [Pra-[Nle6; Glu12]JzTx-V(1-29)], in assay [1], the IC50 was determined as 0.61 nM and the mNav1.7/hNav1.7 was determined as 0.51. For the same molecule, in assay [2], the IC50 was 0.58 nM and the rNav1.7/hNav1.7 turned out to be 0.49. In assay [3], the concentration for half-maximal inhibition (IC50) came out at 6.36 nM and the mNav1.4/mNav1.7 is 10.
As to `C#CC[C@H](N)C(=O)N[C@@H](Cc1ccc(O)cc1)C(=O)N[C@H]1CSSC[C@@H]2NC(=O)[C@@H]3CSSC[C@@H](C(=O)N[C@@H](CCCNC(=N)N)C(=O)N[C@@H](CCCCN)C(=O)N[C@H](C(=O)N[C@H](C(N)=O)[C@@H](C)CC)[C@@H](C)CC)NC(=O)[C@H](Cc4c[nH]c5ccccc45)NC(=O)[C@H](CC(C)C)NC(=O)[C@H](CCCCN)NC(=O)[C@H](CSSC[C@H](NC(=O)[C@H]([C@@H](C)O)NC(=O)[C@H](Cc4c[nH]c5ccccc45)NC(=O)[C@H](CCCC)NC(=O)[C@H](Cc4c[nH]c5ccccc45)NC(=O)[C@H](CCCCN)NC(=O)[C@H](CCC(N)=O)NC1=O)C(=O)N[C@@H](CC(=O)O)C(=O)N[C@@H](CO)C(=O)N[C@@H](CCCCN)C(=O)N[C@@H](CCCNC(=N)N)C(=O)N[C@@H](C)C(=O)N3)NC(=O)[C@H](CCCNC(=N)N)NC(=O)[C@H](CC(C)C)NC(=O)CNC(=O)[C@H](CCC(=O)O)NC2=O` [SEQ ID NO: 425, Pra-[Nle6]JzTx-V(1-29)], in assay [1], the half-maximal inhibitory concentration (IC50) came to 0.511 nM and the mNav1.7/hNav1.7 amounted to 0.43. Also, in assay [2], the IC50 was 0.522 nM and the rNav1.7/hNav1.7 is recorded as 0.44. In addition, in assay [3], the half-maximal inhibitory concentration (IC50) amounted to 0.18 nM and the mNav1.4/mNav1.7 amounted to 0.35.
For the molecule `C#CC[C@H](N)C(=O)N[C@@H](Cc1ccc(O)cc1)C(=O)N[C@H]1CSSC[C@@H]2NC(=O)[C@@H]3CSSC[C@@H](C(=O)N[C@@H](CCCNC(=N)N)C(=O)N[C@@H](CCCCN)C(=O)N[C@H](C(=O)N[C@H](C(N)=O)[C@@H](C)CC)[C@@H](C)CC)NC(=O)[C@H](Cc4c[nH]c5ccccc45)NC(=O)[C@H](CC(C)C)NC(=O)[C@H](CCCCN)NC(=O)[C@H](CSSC[C@H](NC(=O)[C@H]([C@@H](C)O)NC(=O)[C@H](Cc4c[nH]c5ccccc45)NC(=O)[C@H](CCCC)NC(=O)[C@H](Cc4c[nH]c5ccccc45)NC(=O)[C@H](CCCCN)NC(=O)[C@H](CCC(N)=O)NC1=O)C(=O)N[C@@H](CC(=O)O)C(=O)N[C@@H](CO)C(=O)N[C@@H](CCCCN)C(=O)N[C@@H](CCCNC(=N)N)C(=O)N[C@@H](C)C(=O)N3)NC(=O)[C@H](CCCNC(=N)N)NC(=O)[C@H](CC(C)C)NC(=O)CNC(=O)[C@H](CCC(=O)O)NC2=O` [compound 425], the IC50 in assay [4] (setting [9]) was 1.2 nM; in assay [5], 5.35 nM; in assay [7], 67.9 nM. Also, the “inhibition of TTX-sensitive sodium current, in words” value in assay [5] (1 nM as printed, mouse DRG neurons) was “almost complete inhibition”. In addition, the “block of TTX-sensitive Nav current, in words” value in assay [5] (100 nM) is listed as “blocked most TTX-sensitive Nav current”. The “fold more potent than JzTx-V in inhibition of TTX-sensitive current” value in assay [5] (mouse DRG neurons) is on record as “about 3 fold”. Moreover, the 1.x/1.7 came to 6335 in assay [5], 1 in assay [6] (fully non-inactivated) and 1 in assay [6] (partially inactivated). In addition, the “block of hNav1.7 current, in words” value in assay [6] (held at −77 mV, partially inactivated state) is reported as “fully blocked Nav1.7 current; also recorded: complete inhibition”; in assay [6] (held at −140 mV, fully non-inactivated state), “fully blocked Nav1.7 current; also recorded: complete inhibition”. In addition, the “improvement in hNav1.7 potency over wild type JzTx-V” value in assay [6] (WCPC format) was ~200 fold and 190 fold. Also, the Nav1.6/Nav1.7 in assay [7] came out at 57.
With `C#CC[C@H](N)C(=O)N[C@@H](Cc1ccc(O)cc1)C(=O)N[C@H]1CSSC[C@@H]2NC(=O)[C@@H]3CSSC[C@@H](C(=O)N[C@@H](CCCNC(=N)N)C(=O)N[C@@H](CCCCN)C(=O)N[C@@H](CCC(=O)O)C(=O)N[C@H](C(N)=O)[C@@H](C)CC)NC(=O)[C@H](Cc4c[nH]c5ccc(Br)cc45)NC(=O)[C@H](CC(C)C)NC(=O)[C@H](CCCCN)NC(=O)[C@H](CSSC[C@H](NC(=O)[C@H]([C@@H](C)O)NC(=O)[C@H](Cc4c[nH]c5ccccc45)NC(=O)[C@H](CCCC)NC(=O)[C@H](Cc4c[nH]c5ccccc45)NC(=O)[C@H](CCCCN)NC(=O)[C@H](CCC(N)=O)NC1=O)C(=O)N[C@@H](CC(=O)O)C(=O)N[C@@H](CO)C(=O)N[C@@H](CCCCN)C(=O)N[C@@H](CCCNC(=N)N)C(=O)N[C@@H](C)C(=O)N3)NC(=O)[C@H](CCCNC(=N)N)NC(=O)[C@H](CC(C)C)NC(=O)CNC(=O)[C@H](CCC(=O)O)NC2=O` [compound 858], the half-maximal inhibitory concentration (IC50) is 40.4 nM in assay [8] (PatchXpress, tonic block, read-out: PX hNav1.4 Tonic IC50); 0.039 nM in assay [4] (Table 12, PatchXpress, tonic block, read-out: PX hNav1.7 Tonic IC50); 0.059 nM in assay [4] (setting [9]); 3.8 nM in assay [5]; 0.13 nM in assay [6] (WCPC, partially inactivated, hNav1.7, n=2, read-out: Mean IC50); 49.2 nM in assay [7]. Besides, the Nav1.4/Nav1.7 in assay [8] (ratio of PX tonic IC50 values) was 1036. In assay [5] (30 nM, C57 Black 6 mouse DRG neuron), the “block of TTX-sensitive Nav current, in words” value is on record as “blocks most of TTX-sensitive Nav current”. For the same molecule, in assay [5] (manual patch clamp), the “potency on TTX-S current in mDRG neurons, in words” value is recorded as “single digit-nanomolar inhibitor”. Besides, the 1.x/1.7 in assay [5] is 29. The “block of hNav1.7 current” value in assay [6] (100 nM) is listed as “approximately 90%”. Besides, in assay [6] (manual WCPC), the “potency against hNav1.7, in words” value is given as “sub-nanomolar potent inhibitor”. Also, in assay [7], the Nav1.6/Nav1.7 amounted to 829.
As to “[Phe6,Atz(2 kDa EtO-PEG*-[Phe6,Atz13*]GpTx-1(1-34)1)13]GpTx-1(1-34) [Homodimeric Conjugate No. 3]”, the Wash out entry in assay [4] is given as “No”. In addition, the IC50 in assay [4] (read-out: Nav1.7 PX IC50) is 13 nM; in assay [6] (read-out: Nav1.7 whole cell patch clamp [WCPC] IC50) it was 0.58 nM.
